Results on five molecules are retold here after publication PMC11335512, “The first-in-class pro-apoptotic peptide PEP-010 is effective in monotherapy and in combination with paclitaxel on resistant ovarian adenocarcinoma cell models” (Frontiers in Pharmacology, 2024).

Common to all, as to assay type: cell-based
Assay [1] deals with IGROV1CDDP. Nature of the assay: MTT assay, IC50 determination of chemotherapies. The following applies: for IC50: MTT assay, 72 h treatment, IGROV1CDDP (cisplatin-resistant), mean ± SEM, three to six independent biological replicates. How it is done:
(§1) The ovarian cell lines IGROV1, IGROV1CDDP, and IGROV1VCR were cultivated in RPMI 1640 Medium GlutaMAX with 10% FBS and 1% of pyruvate and glutamine. They were maintained at 5% CO2 and 37°C in a humidified atmosphere. All reagents are from Gibco® (Thermo Fisher Scientific, Carlsbad, CA, United States).
(§2) PEP-010 was first dissolved in 0.1% formic acid (10 mM) and then diluted in a cell culture medium at pH9 (to allow a full dissolution of the peptide). Experiments in similar conditions, but without the peptide, were conducted as negative controls. Staurosporine (Selleckchem, Houston, TX, United States) was used as a positive control at a concentration of 1 µM. Cells were collected or analyzed at the indicated time points. For combination conditions, the cells were treated with paclitaxel (Accord, London, United Kingdom) at the indicated concentrations for 72 h.
(§3) Here, 10,000 cells were seeded on 96-well plates in 100 µL of medium. The day after, the medium was replaced with fresh medium containing the appropriate drugs at the indicated concentrations: cisplatin (Mylan, Canonsburg, PA, United States), paclitaxel (Accord, London, United Kingdom), doxorubicin (Pfizer, New York, NY, United States), vincristine [Pfizer, New York, NY, United States)], and/or PEP-010. The plates were incubated at 37° in humidified air with 5% CO2 for 72 h. The MTT reagent (20 µL) was added at the end of the indicated time points, and plates were incubated for 2 h at 37°C. In addition, 100 µL of lysis buffer was added to each well. Subsequently, the plates were incubated for 2 h at 37°C, and the absorbance was measured at 570 nm (Tecan, Männedorf, CH).
On the technique in general: Tetrazolium dyes change colour on reduction, which living cells bring about.

Assay [2] deals with IGROV1. Nature of the assay: MTT assay, IC50 determination of chemotherapies. The following applies: Homo sapiens, IGROV-1, 72 h treatment, IGROV1 parental, three to six independent biological replicates. How it is done:
as §1, §2, §3

For assay [3], the system named is IGROV1VCR. Nature of the assay: MTT assay, IC50 determination of chemotherapies alone or with PEP-010. To be noted: for fold change (FC) vs. IC50 IGROV1: IC50 in IGROV1VCR over IC50 in IGROV1, MTT 72 h; for IC50: 72 h treatment, IGROV1VCR (vincristine-resistant, expresses MDR pumps), drug alone, mean ± SEM, three to six independent biological replicates. The protocol:
as §1, §2, §3

The subject of assay [4] is IGROV1CDDP. Nature of the assay: Apoptosis measurement, Annexin V/PI staining and FACS analysis. To be noted: PEP-010 12.5 µM, 24 h post-treatment, untreated control 14.6 ± 1.2, mean ± SEM, three independent biological replicates. The protocol:
as §2
(§4) Cell death was assessed using Annexin V-APC and propidium iodide (PI) (BioLegend, San Diego, CA, United States) staining following the manufacturer’s instructions. Results were analyzed as previously described ([Debernardi et al., 2018]). A total of 10,000 events were analyzed using a C6 Accuri Cytometer (Becton-Dickinson, Franklin Lakes, NJ, United States), analysis was performed using integrated software, and Annexin V positive cells (PI positive and negative) were counted as apoptotic.
(A flow cytometer gives signals particle by particle.)

Assay [5] deals with IGROV1VCR. The assay is described as above. The protocol:
as §2, §4

In assay [6] the test system is IGROV1. The description is as above. The following applies: PEP-010 12.5 µM, 24 h post-treatment, untreated control 11 ± 1.3, mean ± SEM, three independent biological replicates. The protocol:
as §2, §4

The test system of assay [7] is IGROV1CDDP. Nature of the assay: DNA damage, γH2AX immunofluorescence. To be noted: 48 h post-treatment with PEP-010, IGROV1CDDP; untreated control 15.8 ± 2.8; mean ± SEM, three biological replicates. How it is done:
(§5) Cells were seeded on 12 mm coverslips placed in a 24-well plate (24 h, 37°C, and 5% CO2). Cells were treated with PEP-010 as previously described. At the indicated time point, cells were washed with 1X PBS and fixed in 4% paraformaldehyde (Euromedex, Souffelweyersheim, FR) in 1X PBS (10 min, RT), followed by three washes in 1X PBS. Cells were then permeabilized with 2% Triton X-100 (Euromedex, Souffelweyersheim, FR) in 1X PBS (10 min, RT) and then washed in 1X PBS. Cells were saturated with 0.5% BSA (Euromedex, Souffelweyersheim, FR) in 1X PBS (40 min, RT) and then stained with an anti-γH2AX Ser139 antibody (mouse, 1:200, from BioLegend #613402). Incubation with primary antibody (2 h, RT) was followed by three washes in 1X PBS and by incubation (1 h, RT) with a secondary antibody conjugated to Alexa Fluor […] goat anti-mouse (Thermo Fisher Scientific, Carlsbad, CA, United States), diluted 1:200. Coverslips were mounted on microscopy glass slides using a mounting medium containing DAPI (Sigma-Aldrich, Saint-Quentin-Fallavier, Cedex, France). Images were acquired using a fluorescence microscope (Zeiss Observer Z1). Images were analyzed using ImageJ software.

Assay [8] deals with IGROV1VCR. Nature of the assay: DNA damage, γH2AX immunofluorescence. To be noted: 48 h post-treatment with PEP-010, IGROV1VCR; untreated control 20.7 ± 1.7; mean ± SEM, three biological replicates. How it is done: as §5
For assay [9], the system named is ovarian adenocarcinoma cell models resistant to different chemotherapies. Nature of the assay: Cell death in monotherapy (Annexin-V/Propidium Iodide staining and flow cytometry). The following applies: PEP-010 monotherapy; highest value stated in abstract, dose and cell line not stated there. How it is done:
as §2, §4

What is called IC50 is the concentration needed to halve the response being measured. For the molecule `CC[C@]1(O)C[C@H]2CN(CCc3c([nH]c4ccccc34)[C@@](C(=O)OC)(c3cc4c(cc3OC)N(C=O)[C@H]3[C@@](O)(C(=O)OC)[C@H](OC(C)=O)[C@]5(CC)C=CCN6CC[C@]43[C@@H]65)C2)C1` [Vincristine, vincristine], the IC50 in the assay on IGROV1CDDP [1] amounted to 900 nM; in the assay with IGROV1 [2] it was 34 nM; in the assay on IGROV1VCR [3] (MTT assay) it was 3300 nM. In the assay on IGROV1VCR [3], the “fold change (FC) vs. IC50 IGROV1” value was 97.
For “VKKKKIKAEIKIYVETLDDIFEQWAHSEDL [PEP-010]”, the “FC, reduction of the IC50 of paclitaxel (PTX alone vs. PTX + PEP-010)” value in the assay on IGROV1VCR [3] (MTT assay, 72 h, IGROV1VCR, PEP-010 25 µM) was 2.2. In addition, the “total % of Annexin V positive cells” value in the assay on IGROV1CDDP [4] turned out to be 38.7 ± 8.5%; in the assay on IGROV1VCR [5] (PEP-010 12.5 µM, 24 h post-treatment, IGROV1VCR, untreated control 12.6 ± 0.9, mean ± SEM, three independent biological replicates) it was 37 ± 4%; in the assay with IGROV1 [6], 37.4 ± 1.9%. Besides, the “apoptosis, % of cells, combination with paclitaxel” value with IGROV1VCR [5] (PEP-010 in combination with paclitaxel, stated in abstract, doses not given) came out at 87%. For the same molecule, the “% of γH2AX positive cells” value with IGROV1CDDP [7] was found to be 26.5 ± 3.1%; in the assay with IGROV1VCR [8], 29.5 ± 2.6%. Moreover, the “cell death in monotherapy, % of cells” value in assay [9] is “up to 55%”.
With `N.N.[Cl][Pt][Cl]` [Cisplatin, cisplatin], the “fold change (FC) vs. IC50 IGROV1” value with IGROV1CDDP [1] (IC50 in IGROV1CDDP over IC50 in IGROV1, MTT 72 h) was 11.1; in the assay on IGROV1VCR [3], 6.5. In addition, the 50% inhibitory concentration (IC50) came to 25700 nM in the assay on IGROV1CDDP [1] and 15000 nM with IGROV1VCR [3] (MTT assay).
On to `COc1cccc2c1C(=O)c1c(O)c3c(c(O)c1C2=O)C[C@@](O)(C(=O)CO)C[C@@H]3O[C@H]1C[C@H](N)[C@H](O)[C@H](C)O1` [Doxorubicin, doxorubicin], for which the results for the IC50 in the assay on IGROV1CDDP [1], with IGROV1 [2] and in the assay with IGROV1VCR [3] (MTT assay) were 500 nM, 400 nM and > 10000 nM, respectively.
Turning to `CC(=O)O[C@H]1C(=O)[C@@]2(C)[C@H]([C@H](OC(=O)c3ccccc3)[C@]3(O)C[C@H](OC(=O)[C@H](O)[C@@H](NC(=O)c4ccccc4)c4ccccc4)C(C)=C1C3(C)C)[C@]1(OC(C)=O)CO[C@@H]1C[C@@H]2O` [Paclitaxel, paclitaxel], the half-maximal inhibitory concentration (IC50) was 500 nM in the assay with IGROV1CDDP [1], 750 nM with IGROV1 [2] and 2900 nM in the assay with IGROV1VCR [3] (MTT assay). In addition, the “fold change (FC) vs. IC50 IGROV1” value in the assay on IGROV1VCR [3] was determined as 3.9.
